Test results as given in US20050261250A1, “Compositions and methods for inhibiting bone resorption” (Merck & Co., Inc.,, priority 2004, published 2005).

How the values were obtained:
[1] = Autoxidative lability of vitamin D3 as oil or amorphous solid (HPLC); assay type: physicochemical; details: 20-40° C., within hours
Excerpt: It is also understood that vitamin D can undergo autoxidation through induction by a free radical initiator or spontaneously in solid or solution phase to form a variety of products, some of which have been identified. Representative characterization of vitamin D degradation (and, specifically, vitamin D3 in this instance) in embodiments of compositions of the present invention confirms the autoxidative lability of vitamin D3 in which vitamin D3 was converted to an oil or amorphous solid and exposed to temperatures from 20-40° C. […] At longer exposure times, these absorptions continued to decrease as further reaction occurred.

[2] = cited from earlier work

Row | SMILES | HPLC analysis of vitamin D3 after exposure [1] | aqueous solubility [2]
1 | C=C1CC[C@H](O)C/C1=C/C=C1\CCC[C@]2(C)[C@@H]([C@H](C)CCCC(C)C)CC[C@@H]12 [Vitamin D3, cholecalciferol] | extensive destruction | –
2 | C=C1CC[C@H](O)C/C1=C/C=C1\CCC[C@]2(C)[C@@H]([C@H](C)/C=C/[C@H](C)C(C)C)CC[C@@H]12 [vitamin D2, ergocalciferol] | – | water insoluble
